In series [1] the test system is IEC-6/TRPV1+ cells. In words: MTT cell viability assay. The following applies: for Cell Survival: IEC-6/TRPV1+. The protocol: (§1) The rat intestinal epithelial cell line IEC-6, purchased from Kunming Institute of Zoology. CAS, was cultured in Dulbecco’s Modified Eagle’s Medium (DMEM) (Gibco, Grand Island, NY, United States) supplemented with 10% fetal bovine serum (FBS; Gibco) at 37°C in a humidified atmosphere of 5% CO2.
(§2) The plasmid pENTER containing the TRPV1 coding sequence NM_080704 was used as template in a PCR with the following primers: 5′-[…]-3′ (forward) and 5′-[…] (reverse). And synthetic small interfering RNA (siRNA) specific for rat TRPV1 (TRPV1-siRNA) was purchased from Vigene Bioscience (Rockville, MD, United States) with the following sequences: 5′-[…]-3′ (forward) and 5′-[…]-3′ (reverse) for TRPV1-siRNA. The transfecting process was conducted by using the lipofectamin® 3000 transfection reagent (Invitrogen^TM, Carlsbad, CA, United States), according to the manufacturer’s protocol.
(§3) The transfected cells were plated in 96-well plates. […] Optical density at 490 nm was used to evaluate cell viability in 96-well plates.
For orientation: Formazan colour is commonly taken as a measure of viable cells.

For series [2], the system named is IEC-6/TRPV1- cells. Briefly: MTT cell viability assay. How it is done:
as §1, §2, §3

A further series in a line: in vivo. The following applies: SD, rat, po, 10 mg. How it is done:
Blood samples were collected into heparinized tubes before and at 30, 60, 120, 180, 210, 240, 270, 330, 390, and 720 min after administration. Blood samples were immediately centrifuged at 4000 g (4°C) for 10 min to obtain plasma. The plasma samples were stored at -80°C until LC-MS/MS analysis.
The plasma samples and protein sample with 100 μL were extracted with 400 μL of methanol involving IS (verapamil 50 ng⋅mL^-1) by vortex-mix for 1 min, ultrasonic extraction for 1 h, and then centrifugation for 30 min at 15000 g. The supernatant was transferred into a borosilicate glass and 2 μL was subjected to LC-MS/MS analysis.
The LC-MS/MS system consisted of Agilent 6460 Triple Quadrupole LC/MS systems via an ESI interface. The samples were separated on an Agilent ZORBAX SB-C18 column (3.5 μm, 2.1 mm × 150 mm) and the column temperature was maintained at 30°C. The mobile phase consisted of acetonitrile and water contains 0.1% formic acid (70:30, v/v). The flow rate was 0.2 mL⋅min^-1. The ion source was an electrospray ionization interface in the positive mode. […] Other parameters were as follows: spray voltage, 4.0 kV; capillary temperature, 350°C; gas flow, 10 L⋅min^-1.

The test system of series [3] is IEC-6/TRPV1+ cells. In words: LDH release assay (cell membrane integrity). The following applies: for LDH release: IEC-6/TRPV1+; for LDH release compared with the control: NOVO 2.5, 5, 10 μM, CAP 25 μM, RR 10 μM, SB-705498 0.1 μM, 12 and 24 h. A general note: Release of lactate dehydrogenase indicates damage to the cell membrane.
Method: (§4) The transfected cells were plated in 12-well plates. […] The cells were centrifuged at 1000 g for 5 min. Next, 50 μL of supernatants were aspirated and the rest of supernatants were discarded. The cells were washed twice with deionized water and then lysed by ultrasonic wave cracker. And then cell lysate and supernatants were analyzed by using LDH Release Assay Kit, according to the manufacturer’s instructions.
Series [4] concerns IEC-6/TRPV1- cells. In words: LDH release assay (cell membrane integrity).
Method: as §4
Series [5] relates to rat intestine (jejunum, ileum, colon). Briefly: Ussing chamber intestinal permeability of CAP. Type of series: in vitro ADME. The following applies: CAP + 10 μM inhibitor; for fold-inhibition factor of CAP Papp: vs CAP only. The protocol:
NOVO was also prepared in HEPES buffer to yield final concentration at 5, 10, 25, 50, 100, and 200 μM. […] Different portions of the rat intestine were excised and flushed with HEPES buffer, including jejunum (after the first 5 cm of the top of small intestine), ileum (the distal part of small intestine) and colon (proximal to cecal-colonic junction), and incubated in the ice-cold HEPES buffer. Next, 3–4 cm of the intestine was clipped, and the serosa was removed rapidly on an ice-cold glass. The intestinal segments were fixed in the Ussing chamber. Finally, 7 mL of HEPES buffer was added to the receiving side while an equal volume of drug solution to the dosing side. […] All the samples were kept at -20°C till HPLC analysis.
In brief, samples were injected into a C18 column (3.5 μm, 2.1 mm × 100 mm). An aliquot of 20 μL of sample solutions were injected.

The test system is the same in series [6]. Briefly: Ussing chamber intestinal permeability of NOVO. Type of series: in vitro ADME. The conditions noted are these: NOVO in combination with 10 μM RR; Figure 1. The protocol:
The intestinal permeability of CAP in vitro was performed using Ussing chamber. […] NOVO was also prepared in HEPES buffer to yield final concentration at 5, 10, 25, 50, 100, and 200 μM. Animal intestinal segments for the permeability study were prepared in accordance with the experimental method as described previously ([Yodoya et al., 1994]; [Wallon et al., 2005]; [Duan et al., 2013]). Briefly, male SD rats, weighting 240–260 g, were fasted for 18 h before each experiment and anesthetized by injecting 10 % chloral hydrate anesthesia (i.p.). Different portions of the rat intestine were excised and flushed with HEPES buffer, including jejunum (after the first 5 cm of the top of small intestine), ileum (the distal part of small intestine) and colon (proximal to cecal-colonic junction), and incubated in the ice-cold HEPES buffer. Next, 3–4 cm of the intestine was clipped, and the serosa was removed rapidly on an ice-cold glass. The intestinal segments were fixed in the Ussing chamber. Finally, 7 mL of HEPES buffer was added to the receiving side while an equal volume of drug solution to the dosing side. All the chambers were maintained at 37°C by using a warm water-circulating pump and a mixture of 95% O2 and 5% CO2 aerated to ensure the activity of the membrane. […]

For series [7], the system named is IEC-6/TRPV1- cells. In words: CAP accumulation assay. It is filed as cell-based, rat. The conditions noted are these: 2.5-10 μM NOVO, 10 μM RR, 0.1 μM SB-705498, Figure 3D. The protocol: The transfected cells were grown to 80% confluence in 12-well plates. The experiment was divided into three parts: […] SB-705498, RR or NOVO was then added to the medium for another 15, 30, and 60 min. […] After incubation, the medium was removed, and cell layers were washed three times with ice-cold PBS and then extracted with Membrane Protein Extraction Kit (Thermo Fisher Scientific Inc, Rockford, IL, United States), according to the manufacturer’s protocol. The cytosolic protein extracts were stored at -80°C until LC-MS/MS analysis. The plasma samples and protein sample with 100 μL were extracted with 400 μL of methanol involving IS (verapamil 50 ng⋅mL^-1) by vortex-mix for 1 min, ultrasonic extraction for 1 h, and then centrifugation for 30 min at 15000 g. The supernatant was transferred into a borosilicate glass and 2 μL was subjected to LC-MS/MS analysis. The LC-MS/MS system consisted of Agilent 6460 Triple Quadrupole LC/MS systems via an ESI interface. The samples were separated on an Agilent ZORBAX SB-C18 column (3.5 μm, 2.1 mm × 150 mm) and the column temperature was maintained at 30°C. The mobile phase consisted of acetonitrile and water contains 0.1% formic acid (70:30, v/v). The flow rate was 0.2 mL⋅min^-1. The ion source was an electrospray ionization interface in the positive mode. […] Other parameters were as follows: spray voltage, 4.0 kV; capillary temperature, 350°C; gas flow, 10 L⋅min^-1.

Molecules are shown by their SMILES.

From PMC6196238, “Novobiocin, a Newly Found TRPV1 Inhibitor, Attenuates the Expression of TRPV1 in Rat Intestine and Intestinal Epithelial Cell Line IEC-6” (Frontiers in Pharmacology, 2018) come the findings set out here.

Turning to `COc1cc(CNC(=O)CCCC/C=C/C(C)C)ccc1O` [CAP, capsaicin], the “Cell Survival” value is reported as 1.029 ± 0.180 in the series on IEC-6/TRPV1+ cells [1] (12.5 μM, incubation 12 h); 0.916 ± 0.163 in the series on IEC-6/TRPV1+ cells [1] (12.5 μM, incubation 24 h); 0.896 ± 0.199 with IEC-6/TRPV1+ cells [1] (25 μM, incubation 12 h); 0.822 ± 0.102 with IEC-6/TRPV1+ cells [1] (25 μM, incubation 24 h); 0.820 ± 0.201 in the series on IEC-6/TRPV1+ cells [1] (50 μM, incubation 12 h); 0.739 ± 0.012 with IEC-6/TRPV1+ cells [1] (50 μM, incubation 24 h). Also, the “Cell Survival” value in the series on IEC-6/TRPV1- cells [2] (12.5 μM, incubation 12 h) is reported as 0.969 ± 0.310; with IEC-6/TRPV1- cells [2] (12.5 μM, incubation 24 h), 0.934 ± 0.111; in the series with IEC-6/TRPV1- cells [2] (25 μM, incubation 12 h) it was 0.851 ± 0.216; in the series with IEC-6/TRPV1- cells [2] (25 μM, incubation 24 h), 0.878 ± 0.096; in the series on IEC-6/TRPV1- cells [2] (50 μM, incubation 12 h), 0.792 ± 0.316; in the series with IEC-6/TRPV1- cells [2] (50 μM, incubation 24 h) it was 0.801 ± 0.171. Further, in the series on IEC-6/TRPV1+ cells [1] (both IEC-6/TRPV1+ and IEC-6/TRPV1-, incubated 24 h), the “concentration up to which more than 80% of the cells were viable” value turned out to be 25 µM. Moreover, in “in vivo”, the area under the curve AUC(0-t) (in general, exposure summed from dosing to a finite time, without extrapolation to infinity) is 230 ng·h/mL. In the series “in vivo”, the maximum concentration (Cmax) (as a rule, the peak of the concentration-time curve) was found to be 52.2 ± 8.92 ng/mL. Besides, the values for the Tmax in “in vivo” (Tmax of CAP) and in the series “in vivo” (peak time (Tmax) of CAP) were 3.9 h and ~4 h, respectively. The LDH release was 0.380 ± 0.165 gprot⋅mL ^-1 in the series with IEC-6/TRPV1+ cells [3] (25 μM, 12 h); 0.311 ± 0.051 gprot⋅mL ^-1 with IEC-6/TRPV1+ cells [3] (25 μM, 24 h); 0.680 ± 0.205 gprot⋅mL ^-1 in the series on IEC-6/TRPV1- cells [4] (25 μM, 12 h); 0.462 ± 0.101 gprot⋅mL ^-1 with IEC-6/TRPV1- cells [4] (25 μM, 24 h). In the series on IEC-6/TRPV1+ cells [3], the “LDH release compared with the control” value is recorded as “not any significant difference”.
As to `N.N.N.N.N.N.N.N.N.N.N.N.N.N.[Cl-].[Cl-].[Cl-].[Cl-].[Cl-].[Cl-].[O-2].[O-2].[Ru+3].[Ru+3].[Ru+4]` [RR, ruthenium red], the “Papp of CAP” value in series [5] (colon) is reported as 12.18 ± 2.90 ×10^-6, cm⋅s^-1; in series [5] (ileum), 5.06 ± 0.57 ×10^-6, cm⋅s^-1; in series [5] (jejunum), 2.54 ± 0.40 ×10^-6, cm⋅s^-1. Also, the figures for the “fold-inhibition factor of CAP Papp” value in series [5] (colon), in series [5] (ileum) and in series [5] (jejunum) were 1.64 fold, 1.46 fold and 1.23 fold, respectively. Further, the “effect on permeability of NOVO across intestinal segments” value in series [6] is on record as “no change”. In addition, the “accumulation of CAP, co-incubation” value in the series with IEC-6/TRPV1- cells [7] was “did not change”. In addition, the LDH release with IEC-6/TRPV1+ cells [3] (10 μM, 12 h) was 0.406 ± 0.056 gprot⋅mL ^-1; in the series on IEC-6/TRPV1+ cells [3] (10 μM, 24 h) it was 0.301 ± 0.061 gprot⋅mL ^-1; with IEC-6/TRPV1- cells [4] (10 μM, 12 h), 0.552 ± 0.039 gprot⋅mL ^-1; in the series with IEC-6/TRPV1- cells [4] (10 μM, 24 h), 0.501 ± 0.094 gprot⋅mL ^-1. In addition, the “LDH release compared with the control” value in the series on IEC-6/TRPV1+ cells [3] is given as “not any significant difference”.
